# In patent US20260263485A1, “AMINOSTEROL COMPOUNDS, AMINOSTEROL-CYCLODEXTRIN FORMULATIONS, AND METHODS OF USING THE SAME” (Enterin, Inc., priority 2022, published 2026):
# “And” between values parts separate entries of the source, which are not always exact repeats. Equal values may be shown once. Read-outs that look alike come from different tables or passages of the source.
# Experiments:
# [1] = Plasma pharmacokinetics of ENT-03S cyclodextrin formulation after subcutaneous injection; type: in vivo, rat; settings: male, Sprague-Dawley, rat, plasma, sc, 10 mg/kg, 20% beta-cyclodextrin formulation, SC Dose 10 mg/kg, male SD rats, plasma
# Description: In this example, ENT-03S was formulated with unmodified beta-cyclodextrin at a concentration of 25 mg/ml ENT-03, and 20% beta-cyclodextrin, pH 7.5, buffered with phosphate.
# Male Sprague-Dawley rats were administered the ENT-03-cyclodextrin formulation subcutaneous at a dose of 10 mg/kg. Blood samples were drawn from the tail vein at various times, the concentrations of ENT-03 determined, and PK parameters determined.
# [2] = Plasma pharmacokinetics of aqueous ENT-03S solution without cyclodextrin after subcutaneous injection; type: in vivo, rat; settings: 2 mg/ml, 10 mg/kg SC, male SD rats
# Description: The benefits provided by the aminosterol-cyclodextrin formulation disclosed herein can be appreciated by comparing the pharmacokinetics of an aqueous solution of ENT-03S in the absence of cyclodextrin at a concentration of ENT-03S of 2 mg/ml at […].
# (§1) The dose chosen was the maximum ENT-03S concentration that could be delivered to the rat without causing visible local tissue necrosis.
# The experiment was conducted in male Sprague-Dawley rats following the same protocol as above. The formulation was administered subcutaneously at a dose of 10 mg/kg. The data obtained are shown below in Tables 19 and 20 and FIG. 35.
# [3] = Subcutaneous injection into a human subject (local tolerability); type: in vivo
# Description: […] The contents of the syringe were injected subcutaneously in the abdominal area of a human subject creating a visible swelling.
# [4] = Visible local tissue necrosis on subcutaneous delivery to the rat; type: in vivo; settings: aqueous solution in the absence of cyclodextrin, pH 74
# Excerpt: as §1
# [5] = male, Sprague-Dawley, in vivo, sc, 10 mg/kg
# Description: An equal volume of rat bile samples (50 μL) were taken from different animals at different time points following administration of ENT-03S. 50 μL of matrix was mixed with 200 μL of methanol (containing 0.1% formic acid), vortexed for 100 seconds and then centrifuged at 16,000 g for 10 minutes at 4° C. to precipitate proteins. 100 μL of the supernatant was transferred to a new tube and the supernatant diluted with 100 μt, pure water, mixed well and analyzed using UPLC-MS/MS.
# The peak area percentages of parent drug and each metabolite were determined by semi-quantitative estimation using the extracted ion chromatogram peak areas of all detected drug-related material in the sample. Metabolites with percentage of peak area>10% are proposed as major metabolites of ENT-03S.
# Bile samples were obtained from male rats at various time points following a 10 mg/kg dose of ENT-03S via subcutaneous administration in bile dicut cannulated male SD rats as detailed in Table 10. The samples were transferred on dry ice and stored at −80° C. prior to use
# Study design: An equal volume of rat bile samples (50 μL) were taken from different animals at different time points following administration of ENT-03S in study No.: PII-DMPK-ETR-21-001. 50 μL of matrix was mixed with 200 μL of methanol (containing 0.1% formic acid), vortexed for 100 seconds and then centrifuged at 16,000 g for 10 minutes at 4° C. to precipitate proteins. 100 μL of the supernatant was transferred to a new tube and the supernatant diluted with 100 μL pure water, mixed well and analyzed using UPLC-MS/MS.
# Sample preparation: For bile samples, an equal volume of samples (50 μL) are taken from different animals at various time points after the administration of each group of samples, and the same group of samples are mixed thoroughly.
# Data Analysis: UPLC-MS/MS was used for sample analysis, and was conducted using a DionexUltiMate 3000/Vanquish UHPLC system. For mass spectrometry (MS), all analysis was carried out with a Q-Exactive instrument (Thermo Fisher). A full MS scan was used to trigger the data dependent acquisition (DDA) of MS/MS scan spectra. Compound dependent parameters were optimized by ENT-03S. DDA settings were used to trigger acquisition of MS^2 spectra for ions whose intensity is in top 5 of all, with exclusion of impurity ions (m/z 149.02332, m/z 279.15909, m/z 391.28429 and m/z 445.12003), after 3 occurrences for 10 s. Dynamic exclusion settings: automatic exclusion of the ions which have been taken.
# Data Analysis: The analysis was carried out using a thermo Fisher Scientific Q Exactive instrument. Full MS scan was used to trigger the data dependent acquisition (DDA) of MS/MS scan spectra. Compound dependent parameters were optimized by ENT-03S. DDA settings were used to trigger acquisition of MS^2 spectra for ions whose intensity was in the top 5 of all, with exclusion of ions (m/z 149.02332, m/z 279 1 5909, m/z 391.28429 and m/z 445 12003), after 3 occurrences for 10 s. Data was acquired and processed using Xcalibur v4.1 software (Thermo Fisher Scientific) and Compound Discoverer 3.1 (Thermo Fisher Scientific) and Excel (Microsoft 2016).
# [6] = 0. 1l of aqueous ENT-03S 2 mg/ml, pH 74, no cyclodextrin
smiles,measurement,setting,value
"C[C@H](CCC[C@H](C)C(=O)O)[C@H]1CCC2C3C(CC[C@@]21C)[C@@]1(C)CC[C@H](NCCCNCCCCNCCCN)C[C@@H]1C[C@H]3O (stereo partly drawn) [ENT-03S, (2S,6R)-6-((3S,5R,7R,10S,13R,17R)-3-((3-((4-((3-aminopropyl)amino)butyl)amino)propyl)amino)-7-hydroxy-10,13-dimethylhexadecahydro-1 H-cyclopenta[a]phenanthren-17-yl)-2-methylheptanoic acid]",AUC(0-t),"[1]; individual rats, read-out: AUClast",716 µg·h/mL
same,AUC,"[1]; individual rats, read-out: AUClnf",767 µg·h/mL
same,Cmax,"[1]; individual rats, read-out: Cmax",31300 ng/mL
same,half-life,"[1]; individual rats, read-out: T1/2 (converted)",19.4 h
same,AUC(0-t),"[1]; mean, read-out: AUClast Mean",824 µg·h/mL
same,AUC,"[1]; mean, read-out: AUClnf Mean",920 µg·h/mL
same,Cmax,"[1]; mean, read-out: Cmax Mean",32400 ng/mL
same,half-life,"[1]; mean, read-out: T1/2 Mean (converted)",22.4 h
same,Concentration (ng/ml) Rat 1-3,"[2]; 0.25 h, individual rats, 10 mg/kg",1150 ng/mL and 702 ng/mL and 1930 ng/mL
same,Concentration (ng/ml) Rat 1-3,"[2]; 0.5 h, individual rats, 10 mg/kg",2300 ng/mL and 1490 ng/mL and 3220 ng/mL
same,Concentration (ng/ml) Rat 1-3,"[2]; 1 h, individual rats, 10 mg/kg",4910 ng/mL and 2590 ng/mL and 5570 ng/mL
same,Concentration (ng/ml) Rat 1-3,"[2]; 2 h, individual rats, 10 mg/kg",5900 ng/mL and 8620 ng/mL
same,Concentration (ng/ml) Rat 1-3,"[2]; 4 h, individual rats, 10 mg/kg",10800 ng/mL and 16100 ng/mL
same,Concentration (ng/ml) Rat 1-3,"[2]; 8 h, individual rats, 10 mg/kg",19600 ng/mL and 24800 ng/mL
same,Concentration (ng/ml) Rat 1-3,"[2]; 24 h, individual rats, 10 mg/kg",40000 ng/mL and 54300 ng/mL
same,AUClast,"[2]; individual rats, 10 mg/kg",559.927 µg·h/mL and 749.498 µg·h/mL
same,AUClast/D,"[2]; individual rats, 10 mg/kg",67500 kg·ng·h/mL/mg and 56000 kg·ng·h/mL/mg and 75000 kg·ng·h/mL/mg
same,Cmax,"[2]; individual rats, 10 mg/kg",40000 ng/mL and 54300 ng/mL
same,AUClast/D Mean,[2]; mean,66200 kg·ng·h/mL/mg
same,concentration at 0.25 h,"[2]; male, Sprague-Dawley, rat, plasma, sc, 10 mg/kg, 0.25 h, mean",1260 ng/mL
same,concentration at 0.5 h,"[2]; male, Sprague-Dawley, rat, plasma, sc, 10 mg/kg, 0.5 h, mean",2340 ng/mL
same,concentration at 1 h,"[2]; male, Sprague-Dawley, rat, plasma, sc, 10 mg/kg, 1 h, mean",4360 ng/mL
same,concentration at 2 h,"[2]; male, Sprague-Dawley, rat, plasma, sc, 10 mg/kg, 2 h, individual rats, read-out: Concentration (ng/ml) Rat 1-3",8380 ng/mL
same,concentration at 2 h,"[2]; male, Sprague-Dawley, rat, plasma, sc, 10 mg/kg, 2 h, mean, read-out: Concentration Mean",7630 ng/mL
same,concentration at 4 h,"[2]; male, Sprague-Dawley, rat, plasma, sc, 10 mg/kg, 4 h, individual rats, read-out: Concentration (ng/ml) Rat 1-3",14100 ng/mL
same,concentration at 4 h,"[2]; male, Sprague-Dawley, rat, plasma, sc, 10 mg/kg, 4 h, mean, read-out: Concentration Mean",13700 ng/mL
same,concentration at 8 h,"[2]; male, Sprague-Dawley, rat, plasma, sc, 10 mg/kg, 8 h, individual rats, read-out: Concentration (ng/ml) Rat 1-3",26900 ng/mL
same,concentration at 8 h,"[2]; male, Sprague-Dawley, rat, plasma, sc, 10 mg/kg, 8 h, mean, read-out: Concentration Mean",23800 ng/mL
same,concentration at 24 h,"[2]; male, Sprague-Dawley, rat, plasma, sc, 10 mg/kg, 24 h, individual rats, read-out: Concentration (ng/ml) Rat 1-3",43300 ng/mL
same,concentration at 24 h,"[2]; male, Sprague-Dawley, rat, plasma, sc, 10 mg/kg, 24 h, mean, read-out: Concentration Mean",45900 ng/mL
same,Tmax,"[2]; male, Sprague-Dawley, rat, plasma, sc, 10 mg/kg, individual rats",24 h
same,AUC(0-t),"[2]; male, Sprague-Dawley, rat, plasma, sc, 10 mg/kg, individual rats, read-out: AUClast",675 µg·h/mL
same,Cmax,"[2]; male, Sprague-Dawley, rat, plasma, sc, 10 mg/kg, individual rats, read-out: Cmax",43300 ng/mL
same,AUC(0-t),"[2]; male, Sprague-Dawley, rat, plasma, sc, 10 mg/kg, mean, read-out: AUClast Mean",662 µg·h/mL
same,Cmax,"[2]; male, Sprague-Dawley, rat, plasma, sc, 10 mg/kg, mean, read-out: Cmax Mean",45900 ng/mL
same,"local swelling, redness, and warmth",[3]; [6],lasted for several days
same,pain on injection,[3]; [6],severe pain within seconds that persisted for several hours
same,disappearance of swelling at injection site,"[3]; 1 ml of Example 4 formulation (ENT-03S 50 mg/ml, 25% 2-hydroxypropyl β-cyclodextrin), abdominal area","Over the course of an hour, the swelling disappeared"
same,sensation on subcutaneous injection,"[3]; 1 ml of Example 4 formulation (ENT-03S 50 mg/ml, 25% 2-hydroxypropyl β-cyclodextrin, phosphate, pH 7.4-7.6), abdominal area","mild stinging sensation was noted, which disappeared within a few minutes"
same,maximum ENT-03S concentration that could be delivered to the rat without causing visible local tissue necrosis,[4],2 mg/mL
same,Metabolite peak area Rat Bile,[5],1.70E+07
same,Metabolite peak area percentages Rat Bile,[5],13.77%
